# Test results taken from patent US20190055231A1, “BACE1 INHIBITORS” (Hoffmann-La Roche Inc., priority 2016, published 2019).
# Where two headings read alike, the source gives them in different places.
# Key:
# [1] = test system: Aβ40 in brain of wild-type mice; test: Mouse acute in vivo model (inhibition of Aβ40 in brain of wild-type mice); conditions: 4 h post dose
# Procedure: Mouse Acute In Vivo Model (Inhibition of Aβ40 in Brain of Wild-Type Mice)
# Single Dose Efficacy in Mice
# The mouse single dose efficacy was measured in brain homogenate from C57Bl/6J wildtype mice after DEA extraction as described in H. Hilpert et al., J. Med. Chem. 2013, 56, 3980-3995 (dx.doi.org/10.1021/jm400225m).
# (§1) Aβ 40 concentration was determined after solid phase extraction as described above and following a modified protocol from Perkin-Elmer with a commercially available antibody against the N-terminal part of rat Aβ (252Q6, Invitrogen cat. No. AMB0062) and an in-house C-terminal specific anti-Aβ40 antibody (BAP-24, Brockhaus M. et al., J. Neuroreport, 1998, 9:1481-1486) bound to acceptor beads (PerkinElmer, Cat. 6772002). 20 μl analyte per well (reconstituted extracts or standard) were loaded to a White Optiplate-96 (Perkin-Elmer, Cat#6005290). Then, a mixture of biotinylated BAP24 antibody (1:2000 diluted at approximately 1 nM final concentration) and antibody 252Q6 bound to AlphaLISA acceptor beads (Perkin-Elmer cat. No. 6772002 (1:100 diluted, 10 ug/mL final concentration) in 1× AlphaLISA buffer (Perkin-Elmer, AL000F) was added. After 1 hour room temperature incubation in the dark, 20 uL of a streptavidin coated donor beads dilution (40 μg/mL) were added and incubated for 30 minutes in the dark. Light emission at 615 nm was recorded using an EnVision AlphaScreen Reader (Perkin-Elmer). Levels of Aβ40 were calculated as percentage of the baseline samples from non-treated animals.
# Aβ40 lowering was determined after oral administration in wild-type mice (C57Bl/6J mice, n=3-4) 4 h post dosing. Wild-type mice were used as they have a normal physiological level of APP expression and are thus expected to provide a better physiological model for Aβ-peptide production than APP-transgenic organisms. In vivo efficacy is a key factor for appropriate drug candidates, being more relevant than in vitro activities.
# hERG channel = hERG channel (Homo sapiens, UniProt Q12809); test: hERG IC20 assay; format: cell-based
# Description: The methods to determine the hERG IC20 values was described in Industrializing electrophysiology: HT automated patch clamp on SyncroPatch® 96 using instant frozen cells. Polonchuk L., Methods Mol Biol. 2014; 1183:81-92. (doi: 10.1007/978-1-4939-1096-0_5.) PMID:25023303
# QT prolongation is a cardiovascular risk caused by drug candidates which inhibit the hERG channel (human ether a go-go). A sufficient safety margin between the hERG IC20 value and the free plasma concentration necessary to achieve the envisaged thereapeutic effects is desired (ICH. The nonclinical evaluation of the potential for delayed ventricular repolarization (QT interval prolongation) by human pharmaceuticals (S7B), issued as CPMP/ICH/423/02, adopted by CHMP in May 2005 (http://www.ich.org/cache/compo/276-254-1.html; Redfern W S, Carlsson L, Davis A S, Lynch W G, MacKenzie I, Palethorpe S, Siegl P K, Strang I, Sullivan A T, Wallis R, Camm A J, Hammond T G. Relationships between preclinical cardiac electrophysiology, clinical QT interval prolongation and torsade de pointes for a broad range of drugs: evidence for a provisional safety margin in drug development. Cardiovasc Res. 2003 Apr. 1; 58(1):32-45.)). Reducing the activity against efflux transporters expressed at the blood-brain-barrier such as P-glycoprotein P-gp, might result in reduction of the free plasma concentration by optimizing brain penetration.
# Human P-gp = Human P-gp (Homo sapiens, UniProt P08183); test: P-gp transport assay (human); format: in vitro ADME; conditions: efflux ratio
# Description: (§2) P-Gp Transport Assay (Human and Mouse) (P-Gp Assay)
# (§3) In the assay of the P-gp efflux ratio ER as described hereinabove, a compound with ER<2.5 is regarded most suitable. In addition, compounds with low hERG channel binding are suitable as well.
# Mouse P-gp = Mouse P-gp (Mus musculus, UniProt P21447); test: P-gp transport assay (mouse); format: in vitro ADME; conditions: efflux ratio
# Description: as §2, §3
# Rat single dose PK study = format: in vivo; conditions: 1 mg/kg; for concentration at 4 h: oral
# Procedure: (§4) Rat Single Dose PK Study (Inhibition of CSF Aβ40 in Wistar Rats)
# (§5) The rat single dose PK study was described in H. Hilpert et al., J. Med. Chem. 2013, 56, 3980-3995 (dx.doi.org/10.1021/jm400225m) with slight modifications.
# (§6) Blood is transferred into a labeled EDTA-K2 Eppendorf tube and the sample is mixed by inverting the tubes several times. Blood is stored at −20° C.
# CSF Aβ40 = test: Rat single dose study, inhibition of CSF Aβ40 in Wistar rats; format: in vivo; conditions: rat CSF Aβ40, 1 mg/kg, 4 h post dose
# Procedure: as §4, §5
# as §1, with “determined without” for “determined after”, “extraction” for “extraction as described above and”, “20 μL” for “20 uL”, “of Aβ 40” for “of Aβ40”
# [2] = Cynomolgus monkey single dose PK study; format: in vivo, Cynomolgus monkey (Macacaca fascicularis)
# Description: Cynomolgus Monkey (Macacaca fascicularis) Single Dose PK Study and Plasma Aβ40 Determination
# Blood and plasma collection will always be performed in the treatment cage. The animal care keeper grabs either one arm or one leg through the bars. The hairs are shaved for better visibility of the vein. The blood vessel is squeezed, the vein is punctured by using a butterfly and blood is taken. Once enough blood has been withdrawn a cotton swab is placed over the injection site and the needle is gently removed. Bleeding is stopped by pressing a cotton swab on the wound. Plasma samples were taken between 5 min and 48 h.
# Plasma Preparation Cynomolgus
# as §6
# Sequence of hERG channel (Q12809 whole entry): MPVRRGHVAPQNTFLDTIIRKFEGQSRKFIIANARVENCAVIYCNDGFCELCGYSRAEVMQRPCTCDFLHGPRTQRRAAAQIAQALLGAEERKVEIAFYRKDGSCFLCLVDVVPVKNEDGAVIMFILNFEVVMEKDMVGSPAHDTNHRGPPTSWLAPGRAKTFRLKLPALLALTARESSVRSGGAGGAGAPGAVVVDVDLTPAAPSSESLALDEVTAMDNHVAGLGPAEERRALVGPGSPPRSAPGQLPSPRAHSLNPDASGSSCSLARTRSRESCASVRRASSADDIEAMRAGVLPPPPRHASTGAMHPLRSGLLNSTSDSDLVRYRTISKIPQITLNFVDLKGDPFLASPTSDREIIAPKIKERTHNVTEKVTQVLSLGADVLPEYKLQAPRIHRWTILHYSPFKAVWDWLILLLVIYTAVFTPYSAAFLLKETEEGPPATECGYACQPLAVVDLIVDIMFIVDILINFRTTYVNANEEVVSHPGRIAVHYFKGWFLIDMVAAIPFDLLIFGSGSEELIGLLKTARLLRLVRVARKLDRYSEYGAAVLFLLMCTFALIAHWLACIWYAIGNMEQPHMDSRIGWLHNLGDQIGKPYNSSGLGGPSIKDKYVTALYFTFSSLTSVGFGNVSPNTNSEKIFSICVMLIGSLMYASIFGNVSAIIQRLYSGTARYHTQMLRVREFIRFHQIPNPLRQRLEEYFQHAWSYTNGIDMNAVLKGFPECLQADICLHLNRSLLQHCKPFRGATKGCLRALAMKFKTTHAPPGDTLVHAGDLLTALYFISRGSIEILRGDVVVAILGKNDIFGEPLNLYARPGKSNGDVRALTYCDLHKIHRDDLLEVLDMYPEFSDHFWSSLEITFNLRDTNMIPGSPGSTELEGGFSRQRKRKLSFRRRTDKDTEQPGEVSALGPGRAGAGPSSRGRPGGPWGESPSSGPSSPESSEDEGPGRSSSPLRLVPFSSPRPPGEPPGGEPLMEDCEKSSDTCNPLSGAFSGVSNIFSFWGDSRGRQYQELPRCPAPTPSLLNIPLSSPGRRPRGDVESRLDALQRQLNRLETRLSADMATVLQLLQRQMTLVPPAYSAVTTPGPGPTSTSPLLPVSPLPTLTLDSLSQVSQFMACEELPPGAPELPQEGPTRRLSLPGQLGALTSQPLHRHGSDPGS
# Sequence of Mouse P-gp (P21447 whole entry): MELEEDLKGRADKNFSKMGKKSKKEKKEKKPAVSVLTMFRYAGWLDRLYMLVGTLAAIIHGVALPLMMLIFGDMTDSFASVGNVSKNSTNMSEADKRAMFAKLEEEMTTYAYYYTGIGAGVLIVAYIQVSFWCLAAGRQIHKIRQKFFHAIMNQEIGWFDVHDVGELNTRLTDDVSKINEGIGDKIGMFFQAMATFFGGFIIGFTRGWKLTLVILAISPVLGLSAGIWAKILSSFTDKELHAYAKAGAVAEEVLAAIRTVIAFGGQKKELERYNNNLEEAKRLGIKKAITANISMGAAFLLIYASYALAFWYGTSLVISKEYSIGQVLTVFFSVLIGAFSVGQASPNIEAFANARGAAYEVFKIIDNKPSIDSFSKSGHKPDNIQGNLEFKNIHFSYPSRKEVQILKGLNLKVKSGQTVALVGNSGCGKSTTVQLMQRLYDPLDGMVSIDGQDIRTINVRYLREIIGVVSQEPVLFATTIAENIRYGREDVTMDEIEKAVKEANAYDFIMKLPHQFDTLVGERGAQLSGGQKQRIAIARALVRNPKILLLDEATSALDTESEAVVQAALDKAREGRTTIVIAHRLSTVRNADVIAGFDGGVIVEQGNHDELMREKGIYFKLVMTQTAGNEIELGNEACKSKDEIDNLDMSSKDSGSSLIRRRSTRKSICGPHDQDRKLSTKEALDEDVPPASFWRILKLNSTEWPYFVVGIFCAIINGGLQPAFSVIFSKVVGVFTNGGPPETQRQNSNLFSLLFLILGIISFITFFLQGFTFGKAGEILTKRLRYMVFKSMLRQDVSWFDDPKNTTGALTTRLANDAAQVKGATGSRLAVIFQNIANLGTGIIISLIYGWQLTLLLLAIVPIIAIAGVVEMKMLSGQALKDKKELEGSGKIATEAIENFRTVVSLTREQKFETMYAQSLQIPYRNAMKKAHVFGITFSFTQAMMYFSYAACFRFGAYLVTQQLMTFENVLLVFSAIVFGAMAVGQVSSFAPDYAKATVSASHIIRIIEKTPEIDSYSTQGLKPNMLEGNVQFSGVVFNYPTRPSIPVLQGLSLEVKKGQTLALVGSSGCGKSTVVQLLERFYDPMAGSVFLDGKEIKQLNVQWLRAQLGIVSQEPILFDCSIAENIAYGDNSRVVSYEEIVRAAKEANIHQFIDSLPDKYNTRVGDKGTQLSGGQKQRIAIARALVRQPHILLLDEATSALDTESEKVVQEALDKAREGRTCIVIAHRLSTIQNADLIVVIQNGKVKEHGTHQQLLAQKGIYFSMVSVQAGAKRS
# Sequence of Human P-gp (P08183 whole entry): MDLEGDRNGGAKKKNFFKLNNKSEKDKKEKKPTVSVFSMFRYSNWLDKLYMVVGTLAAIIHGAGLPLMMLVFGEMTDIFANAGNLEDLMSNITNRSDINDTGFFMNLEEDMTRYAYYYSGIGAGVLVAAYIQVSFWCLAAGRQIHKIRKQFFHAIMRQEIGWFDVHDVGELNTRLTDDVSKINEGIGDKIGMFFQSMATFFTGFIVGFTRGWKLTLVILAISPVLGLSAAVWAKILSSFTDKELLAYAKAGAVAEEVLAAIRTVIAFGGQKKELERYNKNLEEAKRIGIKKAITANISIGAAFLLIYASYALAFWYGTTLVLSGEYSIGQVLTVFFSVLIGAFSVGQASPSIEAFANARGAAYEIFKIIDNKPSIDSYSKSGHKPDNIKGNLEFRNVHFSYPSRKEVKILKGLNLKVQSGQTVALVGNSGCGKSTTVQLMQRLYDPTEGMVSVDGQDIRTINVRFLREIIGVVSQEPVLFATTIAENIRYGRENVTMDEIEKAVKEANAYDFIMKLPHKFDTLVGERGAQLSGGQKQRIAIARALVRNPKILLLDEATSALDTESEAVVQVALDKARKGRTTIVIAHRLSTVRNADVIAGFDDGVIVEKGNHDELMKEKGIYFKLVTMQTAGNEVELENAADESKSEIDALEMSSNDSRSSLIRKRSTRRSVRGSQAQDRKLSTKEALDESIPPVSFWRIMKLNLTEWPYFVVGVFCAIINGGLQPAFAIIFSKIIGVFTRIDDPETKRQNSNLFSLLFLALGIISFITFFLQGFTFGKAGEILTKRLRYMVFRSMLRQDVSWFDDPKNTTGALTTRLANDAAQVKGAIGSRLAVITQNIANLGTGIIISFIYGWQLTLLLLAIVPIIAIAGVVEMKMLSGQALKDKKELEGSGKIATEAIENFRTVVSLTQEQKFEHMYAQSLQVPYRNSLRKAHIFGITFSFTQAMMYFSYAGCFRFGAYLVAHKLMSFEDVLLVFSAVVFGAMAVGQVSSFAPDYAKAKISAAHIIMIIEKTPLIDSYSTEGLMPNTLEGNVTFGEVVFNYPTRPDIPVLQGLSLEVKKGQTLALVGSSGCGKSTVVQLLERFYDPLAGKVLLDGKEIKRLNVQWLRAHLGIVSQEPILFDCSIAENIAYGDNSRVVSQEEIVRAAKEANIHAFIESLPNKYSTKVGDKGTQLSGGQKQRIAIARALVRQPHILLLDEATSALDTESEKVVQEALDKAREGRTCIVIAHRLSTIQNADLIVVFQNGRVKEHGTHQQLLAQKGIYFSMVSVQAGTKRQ
smiles,measurement,setting,value
C[C@]1(c2nc(NC(=O)c3ccc(C#N)cn3)ccc2F)N=C(N)O[C@H](C(F)(F)F)[C@@H]1F [Comparator 6],Brain Aβ-lowering 3 mg/kg,[1]; single p.o. dose 3 mg/kg,86%
same,Brain Aβ-lowering 10 mg/kg,[1]; single p.o. dose 10 mg/kg,94%
same,higher affinity to hERG than example 1,hERG channel,6 fold
same,IC20,"hERG channel; human, hERG IC20 assay",400 nM
same,Human P-gp ER,Human P-gp,1.1
same,Mouse P-gp ER,Mouse P-gp,2.4
same,"Plasma concentration at 4 h, free","Rat single dose PK study; 4 h, free unbound",36.3 nM
same,Plasma concentration at 4 h,"Rat single dose PK study; 4 h, total",193 nM
same,concentration at 4 h,"Rat single dose PK study; Wistar, plasma, 4 h, free unbound, read-out: Plasma concentration at 4 h, free",36.3 nM
same,concentration at 4 h,"Rat single dose PK study; Wistar, plasma, 4 h, free, read-out: Plasma concentration at 4 h, free",85 ng/mL
same,concentration at 4 h,"Rat single dose PK study; Wistar, plasma, 4 h, total, read-out: Plasma concentration at 4 h",85 ng/mL
same,bioavailability,"Rat single dose PK study; Wistar, plasma, po, read-out: Oral Bioavailability F",19%
same,CSF Aβ-lowering 1 mg/kg at 4 h,CSF Aβ40,77%
same,lower exposure compared to example 1,[2],5 fold
same,clearance,[2]; plasma,9.7 mL/min/kg
same,bioavailability,"[2]; plasma, po, read-out: Oral Bioavailability F",63%
same,half-life,"[2]; plasma, po, read-out: t1/2 p.o. (converted)",11 h
